Reference: ChEMBL document CHEMBL3259742, “Design and synthesis of triazolopyrimidine acylsulfonamides as novel anti-mycobacterial leads acting through inhibition of acetohydroxyacid synthase” (Bioorg Med Chem Lett, 2014)
Values after ≈ are worked out from the molar mass of the structure shown.

Key:
[1] = test system: Mycobacterium tuberculosis; assay: Antimycobacterial activity against Mycobacterium tuberculosis H37Rv ATCC 27294 after 7 days by resazurin assay; assay type: functional; settings: H37Rv ATCC 27294, 168 h
[2] = Inhibition of Mycobacterium tuberculosis acetohydroxy acid synthase after 60 mins by acetoin formation-based colorimetry
[3] = test system: Mycobacterium tuberculosis; assay: Antimycobacterial activity against Mycobacterium tuberculosis H37Rv ATCC 27294 after 7 days by resazurin assay in presence of Isoleucine, Leucine and Valine; assay type: functional; settings: H37Rv ATCC 27294, 168 h

| SMILES | MIC [1] [µg/mL] | pIC50 [2] | MIC [3] [µg/mL] |
| --- | --- | --- | --- |
| Cc1cc(C)n2nc(C(=O)NS(=O)(=O)c3cccc(Br)c3)nc2n1 | 32 (≈ 78 µM) | 5.31 | – |
| Cc1cc(C)n2nc(C(=O)NS(=O)(=O)c3ccccc3C(F)(F)F)nc2n1 | ≤ 0.13 | 6.98 | > 32 |
| Cc1cc(C)n2nc(C(=O)NS(=O)(=O)c3ccccc3OC(F)(F)F)nc2n1 | 0.03 (≈ 0.0722 µM) | 7.6 | > 32 |
| Cc1cc(C)n2nc(C(=O)NS(=O)(=O)c3cccc(C(F)(F)F)c3)nc2n1 | 16 (≈ 40.1 µM) | 5.36 | – |
| COC(=O)c1ccccc1S(=O)(=O)NC(=O)c1nc2nc(C)cc(C)n2n1 | 0.25 (≈ 0.642 µM) | 7.15 | > 32 |
| COC(=O)c1ccccc1S(=O)(=O)NC(=O)Nc1nc(C)cc(C)n1 [SULFOMETURON METHYL] | 16 (≈ 43.9 µM) | 6.12 | > 32 |
| Cc1cc(C)n2nc(C(=O)NS(=O)(=O)c3c(C)cccc3Cl)nc2n1 | 0.25 (≈ 0.658 µM) | 6.7 | > 32 |
| Cc1cc(C)n2nc(C(=O)NS(=O)(=O)c3ccccc3C)nc2n1 | 1 (≈ 2.9 µM) | 6.29 | > 32 |
| Cc1cc(C)n2nc(C(=O)NS(=O)(=O)c3cccc(OC(F)(F)F)c3)nc2n1 | 16 (≈ 38.5 µM) | 5.6 | – |
| Cc1cc(C)n2nc(C(=O)NS(=O)(=O)c3c(C)cccc3OC(F)(F)F)nc2n1 | ≤ 0.03 | 7.75 | > 32 |
| Cc1cc(C)n2nc(C(=O)NS(=O)(=O)c3ccc(OC(F)(F)F)cc3)nc2n1 | > 32 | < 4.52 | – |
| Cc1cc(C)n2nc(C(=O)NS(=O)(=O)c3ccccc3F)nc2n1 | > 32 | 5.24 | > 32 |
| Cc1cc(C)n2nc(C(=O)NS(=O)(=O)c3ccc(C(F)(F)F)cc3)nc2n1 | > 32 | < 4.52 | – |
| Cc1cc(C)n2nc(C(=O)NS(=O)(=O)c3c(C)cccc3C)nc2n1 | 0.5 (≈ 1.39 µM) | 6.54 | > 32 |
| Cc1cc(C)n2nc(C(=O)NS(=O)(=O)c3ccccc3OC(F)F)nc2n1 | < 0.25 | > 7.2 | > 32 |
| Cc1cc(C)n2nc(C(=O)NS(=O)(=O)c3ccccc3CC#N)nc2n1 | 32 (≈ 86.4 µM) | 6.59 | – |
| Cc1cc(C)n2nc(C(=O)NS(=O)(=O)c3ccccc3Br)nc2n1 | 0.25 (≈ 0.609 µM) | 7.04 | > 32 |
| Cc1cc(C)n2nc(C(=O)NS(=O)(=O)c3ccccc3Cl)nc2n1 | 2 (≈ 5.47 µM) | 6.82 | > 32 |
| COc1ccccc1S(=O)(=O)NC(=O)c1nc2nc(C)cc(C)n2n1 | 0.5 (≈ 1.38 µM) | 5.81 | > 32 |
